The results in this text go back to ChEMBL document CHEMBL2203036, “Discovery of 1-[2-(2,4-dimethylphenylsulfanyl)phenyl]piperazine (Lu AA21004): a novel multimodal compound for the treatment of major depressive disorder” (J Med Chem, 2011).

One series relates to Liver microsomes. Kind of series: Intrinsic clearance in rat liver microsomes at 1 uM after 60 mins by LC-MS/MS analysis. The format is ADME, Microsome. Conditions: 1 h. For orientation: Liver microsomes are vesicles of endoplasmic reticulum, rich in cytochrome P450 enzymes.
Series [1] addresses T1, 5-hydroxytryptamine receptor 1B (Homo sapiens, UniProt P28222). Kind of series: Partial agonist activity at human 5HT1B receptor expressed in CHO cells assessed as [35S]GTPgammaS binding. The class given is functional, cell-based. In general terms: GTPγS resists hydrolysis and so accumulates on activated G proteins.
Series [2] concerns the target 5-hydroxytryptamine receptor 5A (Homo sapiens, UniProt P47898). Nature of the series: Binding affinity to human 5HT5A receptor.
In series [3] the target is 5-hydroxytryptamine receptor 3A (Rattus norvegicus, UniProt P35563). Kind of series: Antagonist activity at rat 5HT3A receptor expressed in xenopus oocytes assessed as inhibition of 5HT-induced effect by electrophysiological method. The format is functional, cell-based, Oocyte.
In the next series the target is T2, Cytochrome P450 1A2 (Homo sapiens, UniProt P05177).
T2 sequence (P05177 whole entry): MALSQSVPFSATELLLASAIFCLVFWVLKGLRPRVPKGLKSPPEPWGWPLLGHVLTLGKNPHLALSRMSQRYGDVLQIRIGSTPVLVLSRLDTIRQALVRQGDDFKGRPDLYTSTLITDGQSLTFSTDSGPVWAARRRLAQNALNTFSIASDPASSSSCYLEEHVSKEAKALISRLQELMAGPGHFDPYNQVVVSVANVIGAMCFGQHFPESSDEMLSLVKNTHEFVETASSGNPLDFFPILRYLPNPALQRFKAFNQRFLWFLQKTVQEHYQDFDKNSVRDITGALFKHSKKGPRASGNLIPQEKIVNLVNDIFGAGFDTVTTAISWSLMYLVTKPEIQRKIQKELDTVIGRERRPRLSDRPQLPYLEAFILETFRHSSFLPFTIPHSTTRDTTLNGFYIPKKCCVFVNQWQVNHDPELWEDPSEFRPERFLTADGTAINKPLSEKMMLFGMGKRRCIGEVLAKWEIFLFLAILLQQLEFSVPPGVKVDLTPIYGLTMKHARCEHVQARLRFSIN
Kind of series: Inhibition of human recombinant CYP1A2 using 7-ethoxy-3-cyanocoumarin after 28 mins by fluorescence spectrophotometric analysis. The class given is ADME.

A further series deals with Cytochrome P450 3A4 (Homo sapiens, UniProt P08684). Nature of the series: Inhibition of human recombinant CYP3A4 using resorufin benzyl ether after 30 mins by fluorescence spectrophotometric analysis. The class given is ADME.
Series [4] in a line: Inhibition of NET-mediated [3H]NE in rat synaptosomes by scintillation counting. The class given is subcellular, Brain.
The target in a further series is Cytochrome P450 2D6 (Homo sapiens, UniProt P10635). Nature of the series: Inhibition of human recombinant CYP2D6 using 3-[2-(N,N-diethyl-N-methylamino)ethyl]-7-methoxy- 4-methylcoumarin after 45 mins by fluorescence spectrophotometric analysis. The format is ADME.
Series [5] addresses Beta-1 adrenergic receptor (Homo sapiens, UniProt P08588). Nature of the series: Binding affinity to human beta 1 adrenergic receptor.
Series [6] deals with T1, 5-hydroxytryptamine receptor 1B. Nature of the series: Partial agonist activity at human 5HT1B receptor expressed in CHO cells assessed as [35S]GTPgammaS binding relative to 5HT.
The subject of another series is Rattus norvegicus. Kind of series: Hepatic clearance in rat at 1 mg/kg, iv. The class given is ADME, organism-based, Liver. Details: dose 1 mg/kg, route intravenous. Conditions: in vivo.
Series [7] addresses 5-hydroxytryptamine receptor 1A (Rattus norvegicus) (UniProt P19327). Nature of the series: Binding affinity to rat 5HT1A receptor.
Series [8] addresses T1, 5-hydroxytryptamine receptor 1B. Nature of the series: Binding affinity at human 5HT1B receptor.
The target in a further series is Histamine H2 receptor (Homo sapiens, UniProt P25021). Nature of the series: Binding affinity to human histamine H2 receptor.
Histamine H2 receptor, sequence (P25021 whole entry): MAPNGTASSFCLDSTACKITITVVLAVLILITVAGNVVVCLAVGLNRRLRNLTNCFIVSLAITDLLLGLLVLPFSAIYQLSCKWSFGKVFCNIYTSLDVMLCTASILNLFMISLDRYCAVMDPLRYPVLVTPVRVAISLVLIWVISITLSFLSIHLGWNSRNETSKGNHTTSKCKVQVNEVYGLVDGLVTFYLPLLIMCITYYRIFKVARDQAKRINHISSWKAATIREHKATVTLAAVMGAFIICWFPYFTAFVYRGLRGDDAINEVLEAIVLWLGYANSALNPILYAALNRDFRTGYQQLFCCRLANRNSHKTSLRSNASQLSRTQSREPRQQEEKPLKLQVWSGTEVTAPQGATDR

T1 sequence (P28222 whole entry): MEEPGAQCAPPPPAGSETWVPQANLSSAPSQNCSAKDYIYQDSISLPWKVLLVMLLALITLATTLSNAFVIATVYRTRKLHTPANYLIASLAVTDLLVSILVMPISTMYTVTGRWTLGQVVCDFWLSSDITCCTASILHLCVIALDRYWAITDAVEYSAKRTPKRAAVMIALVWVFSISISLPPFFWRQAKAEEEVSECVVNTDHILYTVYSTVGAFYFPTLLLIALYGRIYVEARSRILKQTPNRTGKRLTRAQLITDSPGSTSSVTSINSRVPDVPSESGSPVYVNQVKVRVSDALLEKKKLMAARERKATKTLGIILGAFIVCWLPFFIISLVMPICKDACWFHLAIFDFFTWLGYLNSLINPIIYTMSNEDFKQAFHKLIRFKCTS
Beta-1 adrenergic receptor, sequence (P08588 whole entry): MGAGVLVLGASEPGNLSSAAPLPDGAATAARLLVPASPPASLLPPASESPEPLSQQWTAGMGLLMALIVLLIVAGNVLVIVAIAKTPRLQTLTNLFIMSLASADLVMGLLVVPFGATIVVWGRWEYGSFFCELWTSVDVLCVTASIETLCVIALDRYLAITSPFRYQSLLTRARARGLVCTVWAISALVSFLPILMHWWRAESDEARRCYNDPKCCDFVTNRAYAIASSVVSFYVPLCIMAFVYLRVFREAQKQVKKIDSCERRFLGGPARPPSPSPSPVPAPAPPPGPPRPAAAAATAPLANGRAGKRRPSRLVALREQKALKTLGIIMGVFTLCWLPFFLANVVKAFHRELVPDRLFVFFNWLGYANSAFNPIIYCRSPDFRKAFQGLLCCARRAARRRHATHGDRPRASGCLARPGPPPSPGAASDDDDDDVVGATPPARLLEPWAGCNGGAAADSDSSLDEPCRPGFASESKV
Cytochrome P450 2D6, sequence (P10635 whole entry): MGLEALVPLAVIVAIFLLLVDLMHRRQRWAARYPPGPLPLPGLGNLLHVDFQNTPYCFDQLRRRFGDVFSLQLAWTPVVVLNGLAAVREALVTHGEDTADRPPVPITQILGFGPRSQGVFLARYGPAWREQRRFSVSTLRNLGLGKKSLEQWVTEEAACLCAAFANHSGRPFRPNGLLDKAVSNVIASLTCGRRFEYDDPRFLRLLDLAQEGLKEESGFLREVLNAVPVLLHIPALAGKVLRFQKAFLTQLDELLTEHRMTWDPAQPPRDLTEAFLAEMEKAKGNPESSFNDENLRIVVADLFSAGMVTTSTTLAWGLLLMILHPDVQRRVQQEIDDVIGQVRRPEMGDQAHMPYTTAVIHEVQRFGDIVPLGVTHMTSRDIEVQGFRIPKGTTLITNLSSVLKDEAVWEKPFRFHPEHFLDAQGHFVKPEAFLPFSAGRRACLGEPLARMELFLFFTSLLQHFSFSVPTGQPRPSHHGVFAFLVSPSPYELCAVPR
5-hydroxytryptamine receptor 5A, sequence (P47898 whole entry): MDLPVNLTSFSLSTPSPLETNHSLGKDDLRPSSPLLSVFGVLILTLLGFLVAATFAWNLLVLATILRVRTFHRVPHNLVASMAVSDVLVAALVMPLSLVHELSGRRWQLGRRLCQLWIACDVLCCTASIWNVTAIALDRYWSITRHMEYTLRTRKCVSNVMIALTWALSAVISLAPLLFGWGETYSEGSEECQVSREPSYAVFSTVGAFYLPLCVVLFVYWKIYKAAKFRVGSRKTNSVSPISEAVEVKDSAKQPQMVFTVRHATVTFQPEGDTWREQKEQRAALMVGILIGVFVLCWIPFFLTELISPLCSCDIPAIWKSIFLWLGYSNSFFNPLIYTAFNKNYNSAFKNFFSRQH
5-hydroxytryptamine receptor 1A (Rattus norvegicus), sequence (P19327 whole entry, looked up): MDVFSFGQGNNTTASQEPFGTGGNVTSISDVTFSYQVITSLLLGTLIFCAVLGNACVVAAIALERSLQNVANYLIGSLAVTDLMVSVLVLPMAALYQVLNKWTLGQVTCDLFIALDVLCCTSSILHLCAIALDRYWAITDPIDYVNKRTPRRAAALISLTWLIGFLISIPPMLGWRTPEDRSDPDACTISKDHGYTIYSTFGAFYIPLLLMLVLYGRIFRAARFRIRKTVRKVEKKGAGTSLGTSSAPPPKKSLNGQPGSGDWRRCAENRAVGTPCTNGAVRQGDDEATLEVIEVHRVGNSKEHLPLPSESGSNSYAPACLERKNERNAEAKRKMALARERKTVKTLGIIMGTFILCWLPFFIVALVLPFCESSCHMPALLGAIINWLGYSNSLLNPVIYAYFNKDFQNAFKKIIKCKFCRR
Cytochrome P450 3A4, sequence (P08684 whole entry): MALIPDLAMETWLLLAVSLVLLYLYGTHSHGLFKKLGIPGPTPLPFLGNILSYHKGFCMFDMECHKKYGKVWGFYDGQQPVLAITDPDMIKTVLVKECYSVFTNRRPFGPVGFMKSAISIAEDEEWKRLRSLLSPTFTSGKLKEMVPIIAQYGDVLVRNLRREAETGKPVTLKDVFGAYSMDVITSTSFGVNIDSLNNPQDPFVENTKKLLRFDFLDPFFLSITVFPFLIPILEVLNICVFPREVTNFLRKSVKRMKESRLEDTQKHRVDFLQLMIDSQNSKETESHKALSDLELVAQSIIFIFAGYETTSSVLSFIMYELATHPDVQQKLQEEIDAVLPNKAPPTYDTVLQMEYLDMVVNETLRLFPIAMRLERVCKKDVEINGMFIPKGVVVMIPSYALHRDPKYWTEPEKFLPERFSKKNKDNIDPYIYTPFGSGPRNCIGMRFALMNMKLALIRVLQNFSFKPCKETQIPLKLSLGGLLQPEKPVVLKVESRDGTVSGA
5-hydroxytryptamine receptor 3A, sequence (P35563 whole entry): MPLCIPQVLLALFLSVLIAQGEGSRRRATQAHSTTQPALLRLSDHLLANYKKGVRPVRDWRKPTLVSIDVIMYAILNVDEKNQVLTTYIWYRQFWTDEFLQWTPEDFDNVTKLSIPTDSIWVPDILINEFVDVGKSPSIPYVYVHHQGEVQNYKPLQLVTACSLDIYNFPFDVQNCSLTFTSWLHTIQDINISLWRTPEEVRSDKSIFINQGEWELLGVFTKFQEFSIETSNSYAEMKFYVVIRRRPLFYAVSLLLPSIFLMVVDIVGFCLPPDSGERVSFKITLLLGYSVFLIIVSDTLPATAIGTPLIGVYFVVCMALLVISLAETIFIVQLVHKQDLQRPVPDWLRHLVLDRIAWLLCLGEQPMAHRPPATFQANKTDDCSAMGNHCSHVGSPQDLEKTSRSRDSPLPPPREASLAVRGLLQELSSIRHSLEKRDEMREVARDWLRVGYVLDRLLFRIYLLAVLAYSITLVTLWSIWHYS

On to `Cc1ccc(Sc2ccccc2N2CCNCC2)c(C)c1.Cl`, for which the CLH in the series on Liver microsomes amounted to 55 mL/min; with Rattus norvegicus, 118 mL/min/kg. Moreover, the EC50 (in general, the concentration at which the effect is half-maximal) in series [1] worked out at 120 nM. Further, the Ki (commonly a measure of affinity in units of concentration, obtained from inhibition or displacement) worked out at 220 nM in series [2]; 46 nM in [5]; 230 nM in series [7]; 33 nM in series [8]; 180 nM on Histamine H2 receptor. Moreover, the IC50 (commonly the concentration at which inhibition is half-maximal) amounted to 0.18 nM in series [3]; 40000 nM on Cytochrome P450 1A2; 10000 nM at Cytochrome P450 3A4; 140 nM in series [4]; 9800 nM at Cytochrome P450 2D6. Also, the Efficacy in [6] was 55%.
